Test results as given in PubChem BioAssay AID1963981 (Molecular Pharmacology Branch, DTP, NCI, 2024).
Blank lines part the entries; values can stand above or below the compound they belong to.

System: 354836-022-R-J1-PDC multicell spheroid viability
Assay: Anticancer human tumor 354836-022-R-J1-PDC patient-derived head and neck squamous cell carcinoma cell line growth inhibition [PI3K]
Conditions: for IC50: curve of first compound; for viability, T/C: stronger effect = lower value
Procedure, shortened: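 High-throughput combination screen: PI3K inhibitors crossed with targeted small molecules on complex spheroids of tumor cells, HUVEC and MSCs at 37 degrees C, 5% CO2. Top concentration was at or near clinical Cmax (otherwise 10 microM), with half-log decrements.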

[1] = second compound 0.0316 µM, first compound 0.0316 µM
[2] = second compound 0.0316 µM, first compound 0.1 µM
[3] = second compound 0.0316 µM, first compound 0.316 µM
[4] = second compound 0.0316 µM, first compound 1 µM
[5] = second compound 0.0316 µM, first compound 3.16 µM
[6] = second compound 0.0316 µM, first compound 10 µM
[7] = second compound 0.1 µM, first compound 0.0316 µM
[8] = second compound 0.1 µM, first compound 0.1 µM
[9] = second compound 0.1 µM, first compound 0.316 µM
[10] = second compound 0.1 µM, first compound 1 µM
[11] = second compound 0.1 µM, first compound 3.16 µM
[12] = second compound 0.1 µM, first compound 10 µM
[13] = second compound 0.316 µM, first compound 0.0316 µM
[14] = second compound 0.316 µM, first compound 0.1 µM
[15] = second compound 0.316 µM, first compound 0.316 µM
[16] = second compound 0.316 µM, first compound 1 µM
[17] = second compound 0.316 µM, first compound 3.16 µM
[18] = second compound 0.316 µM, first compound 10 µM
[19] = second compound 1 µM, first compound 0.0316 µM
[20] = second compound 1 µM, first compound 0.1 µM
[21] = second compound 1 µM, first compound 0.316 µM
[22] = second compound 1 µM, first compound 1 µM
[23] = second compound 1 µM, first compound 3.16 µM
[24] = second compound 1 µM, first compound 10 µM
[25] = second compound 3.16 µM, first compound 0.0316 µM
[26] = second compound 3.16 µM, first compound 0.1 µM
[27] = second compound 3.16 µM, first compound 0.316 µM
[28] = second compound 3.16 µM, first compound 1 µM
[29] = second compound 3.16 µM, first compound 3.16 µM
[30] = second compound 3.16 µM, first compound 10 µM
[31] = second compound 10 µM, first compound 0.0316 µM
[32] = second compound 10 µM, first compound 0.1 µM
[33] = second compound 10 µM, first compound 0.316 µM
[34] = second compound 10 µM, first compound 1 µM
[35] = second compound 10 µM, first compound 3.16 µM
[36] = second compound 10 µM, first compound 10 µM
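Also: spheroids exposed to agents for seven days before the viability read.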

IC50 (second compound 0.0316 µM): > 10000 nM
IC50 (second compound 0.1 µM): > 10000 nM
IC50 (second compound 0.316 µM): > 10000 nM
IC50 (second compound 1 µM): > 10000 nM
IC50 (second compound 3.16 µM): > 10000 nM
IC50 (second compound 10 µM): < 31.6 nM
Structure (SMILES): C=CC(=O)N1CCN(c2nc(=O)n(-c3c(C)ccnc3C(C)C)c3nc(-c4c(O)cccc4F)c(F)cc23)C(C)C1 (centres undefined) + Cc1nc(NC(=O)N2CCCC2C(N)=O)sc1-c1ccnc(C(C)(C)C(F)(F)F)c1
viability, T/C [1]: 100%
viability, T/C [2]: 90.5%
viability, T/C [3]: 96.2%
viability, T/C [4]: 87.7%
viability, T/C [5]: 113%
viability, T/C [6]: 92.5%
viability, T/C [7]: 118%
viability, T/C [8]: 100%
viability, T/C [9]: 97.2%
viability, T/C [10]: 96.7%
viability, T/C [11]: 110%
viability, T/C [12]: 105%
viability, T/C [13]: 90.5%
viability, T/C [14]: 99.2%
viability, T/C [15]: 92.1%
viability, T/C [16]: 90.6%
viability, T/C [17]: 105%
viability, T/C [18]: 97.6%
viability, T/C [19]: 72.6%
viability, T/C [20]: 77.8%
viability, T/C [21]: 84.1%
viability, T/C [22]: 105%
viability, T/C [23]: 88%
viability, T/C [24]: 89.4%
viability, T/C [25]: 57.8%
viability, T/C [26]: 65.8%
viability, T/C [27]: 71.8%
viability, T/C [28]: 72.2%
viability, T/C [29]: 90.7%
viability, T/C [30]: 60.2%
viability, T/C [31]: 36.8%
viability, T/C [32]: 36.5%
viability, T/C [33]: 33.7%
viability, T/C [34]: 46.4%
viability, T/C [35]: 43.8%
viability, T/C [36]: 29.5%

IC50 (second compound 0.0316 µM): < 31.6 nM
IC50 (second compound 0.1 µM): < 31.6 nM
IC50 (second compound 0.316 µM): < 31.6 nM
IC50 (second compound 1 µM): < 31.6 nM
IC50 (second compound 3.16 µM): < 31.6 nM
IC50 (second compound 10 µM): < 31.6 nM
Structure (SMILES): CC1(C)CCC(Nc2ncc(C(F)(F)F)c(-c3c[nH]c4c(P(C)(C)=O)c(C#N)ccc34)n2)CN1 (centres undefined) + Cc1nc(NC(=O)N2CCCC2C(N)=O)sc1-c1ccnc(C(C)(C)C(F)(F)F)c1
viability, T/C [1]: 20.2%
viability, T/C [2]: 20.2%
viability, T/C [3]: 26.7%
viability, T/C [4]: 25.1%
viability, T/C [5]: 29.1%
viability, T/C [6]: 2.24%
viability, T/C [7]: 22.8%
viability, T/C [8]: 21.6%
viability, T/C [9]: 25.9%
viability, T/C [10]: 23%
viability, T/C [11]: 28.9%
viability, T/C [12]: 1.52%
viability, T/C [13]: 17.8%
viability, T/C [14]: 20%
viability, T/C [15]: 19.3%
viability, T/C [16]: 25%
viability, T/C [17]: 24%
viability, T/C [18]: 1.82%
viability, T/C [19]: 14.9%
viability, T/C [20]: 18%
viability, T/C [21]: 14.6%
viability, T/C [22]: 20.5%
viability, T/C [23]: 20.2%
viability, T/C [24]: 1.74%
viability, T/C [25]: 13.2%
viability, T/C [26]: 15.6%
viability, T/C [27]: 14.9%
viability, T/C [28]: 15.1%
viability, T/C [29]: 18.4%
viability, T/C [30]: 1%
viability, T/C [31]: 12.7%
viability, T/C [32]: 10.6%
viability, T/C [33]: 11.6%
viability, T/C [34]: 17.2%
viability, T/C [35]: 12.3%
viability, T/C [36]: 0.79%
